Data reported in US20260002132A1, “METHOD FOR PRODUCING RENAL COLLECTING DUCT CELLS AND PELVIC EPITHELIAL CELLS” (Kyoto University, priority 2022, published 2026).
Like-named read-outs stand apart in the source and are kept apart here.

Tests used:
[1] = system: ureteric bud cells derived from Tet-On-ELF5-1231A3 iPS cells; format: cell-based, human; conditions: for effect on AQP2 expression in combination with IBMX: factor added together with IBMX
Description: Ureteric bud organoids on Day 6 were prepared from the Tet-On-ELF5-1231A3 iPS cells using the method previously described (WO2021/066076). In a 1.5 mL tube, 10 ureteric bud organoids were collected and washed twice with 500 μL PBS. 100 μL Accutase was added thereto, and the mixture was incubated for 3 minutes at 37° C., 5% CO2. The ureteric bud organoids were completely transformed into single cells by pipetting, and 900 μL DMEM/10% PBS was added thereto to count cells.
To a 24-well plate (6-well, 12-well, 48-well or 96-well plate, or 6-well, 12-well, or 24-well transwell plate may also be used), the necessary amount of suspension was collected to achieve 0.25 to 1.0×10^5 cells/cm^2, and centrifuged at 300 G for 5 minutes. The cell count was preferably 1×10^5 cells/cm^2. After removing the supernatant, cells were resuspended in a medium comprising DMEM/F12 GlutaMAX+B-27 Supplement minus vitamin A having 10% FBS, 1 μM A83-01, and 1 μM IWR-1 (renal collecting duct progenitor cell-induction medium) added thereto, to which 0.125 μg/cm^2 iMatrix-511 silk and 10 μM Y-27632 were added, and the suspension was adjusted and seeded so that each well contains 500 μL of the suspension. 0.1 μM TTNPB may be further added the medium.
The medium may further comprise 0.1 μM TTNPB, 100 nM desmopressin (dDAVP), 10 nM aldosterone, and 100 nM K252a, and preferably a medium comprising 3 agents of TTNPB, dDAVP, and aldosterone is suitable. Thereafter, the medium was replaced once every 2 days, and the induction into the principal cells was completed on Day 4.
The cultured cells were washed twice with PBS, and then, fixed with 4% PFA at 4° C. for 20 minutes. The cells were washed twice with PBS, and then, blocked using 2% normal donkey serum (MERCK)/PBT (PBS/0.25% Triton X-100, Nacalai tesque, Inc.) (blocking solution) at room temperature for 1 hour. Each primary antibody was diluted with the blocking solution at a rate of 1:200, and left to stand with samples at 4° C. for 24 hours. After washing twice with 0.25% PBT, each secondary antibody was diluted with the blocking solution at a rate of 1:500, and left to stand with samples at room temperature for 2 hours. The cells were observed using a microscope such as BZX-700 (Keyence Corporation).

[2] = system: renal collecting duct principal cells; assay: Apical-basal polarity of AQP2 in renal collecting duct principal cells, transwell culture; format: cell-based, human; conditions: 100 nM dDAVP added to the medium in the lower chamber
Description: Ureteric bud organoids on Day 6 were prepared from the Tet-On-ELF5-1231A3 iPS cells using the method previously described (WO2021/066076). In a 1.5 mL tube, 10 ureteric bud organoids were collected and washed twice with 500 μL PBS. 100 μL Accutase was added thereto, and the mixture was incubated for 3 minutes at 37° C., 5% CO2. The ureteric bud organoids were completely transformed into single cells by pipetting, and 900 μL […] was added thereto to count cells. To evaluate the apical-basal polarity, the cells were seeded on a Transwell 12-well plate (Corning Inc., 3460). Specifically, the necessary amount of suspension was collected to achieve 0.5 to 2×10^5 cells/cm^2, and centrifuged at 300 G for 5 minutes. The cell count was preferably 1×10^5 cells/cm^2. After removing the supernatant, cells were resuspended in the renal collecting duct progenitor cell-induction medium, to which 0.125 μg/cm^2 iMatrix-511 silk and 10 μM Y-27632 were added, and the suspension was adjusted and seeded in the upper chamber so that each well contains 300 μL of the suspension. 0.1 μM TTNPB may be further added the medium. 2 or 3 days later, the medium in the upper chamber was removed, and 300 μL renal collecting duct principal cell-induction medium was placed in the lower chamber. […]

[3] = system: mouse renal collecting duct principal cell lines; conditions: previously reported (Ando F. et al., Nat Commun. 2018); cited from earlier work
[4] = system: renal collecting duct principal cell-containing organoid; assay: Functional evaluation of renal collecting duct principal cell-containing organoids (water uptake, cystoid structure); format: cell-based, human; conditions: organoid on Day 6 of the induction
Description: Ureteric bud organoids on Day 6 were prepared from the Tet-On-ELF5-1231A3 iPS cells using the method previously described (WO2021/066076). The medium was removed and replaced with the renal collecting duct progenitor cell-induction medium of 100 μL/well. 0.1 μM TTNPB may be further added the medium.
3 days later, the medium was replaced with the renal collecting duct principal cell-induction medium of 100 μL/well. The medium may further comprise 0.1 μM TTNPB, 100 nM dDAVP, 10 nM aldosterone, and 100 nM K252a, and preferably a medium comprising 3 agents of TTNPB, dDAVP, and aldosterone is suitable. The medium was replaced once every 2 days, and the preparation of principal cell-containing organoids was completed on Day 6.
The functional evaluation tests were performed on the renal collecting duct principal cell-containing organoids. For the renal collecting duct principal cell-containing organoid on Day 6 of the induction, the medium was replaced with a renal collecting duct principal cell-induction medium, to which 1 μM dDAVP, or with 1 μM dDAVP and 10 μM tolvaptan were added.

[5] = factor added to principal cell-induction medium excluding IBMX, planar culture
[6] = 400 μM IBMX with 4 μM doxycycline in renal collecting duct progenitor cell-induction medium

C[C@]12CCC(=O)C=C1CC[C@@H]1[C@@H]2[C@@H](O)C[C@]2(C=O)[C@@H](C(=O)CO)CC[C@@H]12 [ALD, aldosterone]
AQP2 expression [1, 5]: the AQP2 expression was not promoted
effect on AQP2 expression in combination with IBMX ([1]; planar culture): functioned additively with the addition of IBMX

NC(=O)CC[C@@H]1NC(=O)[C@H](Cc2ccccc2)NC(=O)[C@H](Cc2ccc(O)cc2)NC(=O)[C@@H](N)CSSC[C@@H](C(=O)N2CCC[C@H]2C(=O)N[C@@H](CCCN=C(N)N)C(=O)NCC(N)=O)NC(=O)[C@H](CC(N)=O)NC1=O [AVP, arginine vasopressin]
AQP2 expression [1, 5]: the AQP2 expression was not promoted
effect on AQP2 expression in combination with IBMX ([1]; planar culture): functioned additively with the addition of IBMX

CC(C)Cn1c(=O)n(C)c(=O)c2[nH]cnc21 [IBMX, 3-isobutyl-1-methylxanthine]
AQP2 expression [1, 6]: early expressed AQP2
AVPR2 expression [1, 6]: expressed AVPR2
AQP2 expression ([1]; IBMX added with dDAVP, or with either of AVP and dDAVP, ALD and K252a, planar culture): the AQP2 expression was promoted
number of AQP2-expressing cells ([1]; IBMX at concentrations up to 400 μM, with 4 μM doxycycline): concentration-dependently increased

COC(=O)[C@@]1(O)C[C@H]2O[C@]1(C)n1c3ccccc3c3c4c(c5c6ccccc6n2c5c31)C(=O)NC4 [K252a]
AQP2 expression [1, 5]: the AQP2 expression was not promoted
effect on AQP2 expression in combination with IBMX ([1]; planar culture): functioned additively with the addition of IBMX

NC(=O)CC[C@@H]1NC(=O)[C@H](Cc2ccccc2)NC(=O)[C@H](Cc2ccc(O)cc2)NC(=O)CCSSC[C@@H](C(=O)N2CCC[C@H]2C(=O)N[C@H](CCCN=C(N)N)C(=O)NCC(N)=O)NC(=O)[C@H](CC(N)=O)NC1=O [dDAVP, 1-desamino-8-D-arginine vasopressin]
effect on AQP2 expression in combination with IBMX ([1]; planar culture): functioned additively with the addition of IBMX
polarization of AQP2 expression [2]: increase in polarization of AQP2 expression to the contralateral side
AQP2 expression and apical polarization [3]: promotes AQP2 expression and causes apical polarization
water uptake and cystoid structure formation ([4]; 1 μM dDAVP): water uptake was promoted from the next day, and a cystoid structure was formed

Cc1ccccc1C(=O)Nc1ccc(C(=O)N2CCCC(O)c3cc(Cl)ccc32)c(C)c1 (stereo not drawn) [tolvaptan]
formation of a cystoid structure ([4]; 10 μM tolvaptan together with 1 μM dDAVP): the formation of a cystoid structure was suppressed
